In paper PMC13379085 (PLOS Neglected Tropical Diseases, 2026):
≈ marks a conversion by molar mass, not a printed value. Like-named read-outs stand apart in the source and are kept apart here.

Key:
[1] = system: THP-1 macrophages; test: MTT viability of THP-1 macrophages (host cell cytotoxicity); assay type: cell-based; conditions: for CC50: MTT assay
Procedure: Human monocytes, THP-1 (ATCC, TIB002) were used as host cells for Leishmania infection and to assess drug cytotoxicity. The cells were cultured at 37C, 5% CO2 in RPMI medium (ATCC) supplemented with 10% FBS, 1% Penicillin/Streptomycin and 0.05 mM of β-mercaptoethanol. Cells were used in experiments up to passage 10.
Effect of the compounds on THP-1 cell viability measured using thiazolyl blue tetrazolium bromide which measures cell metabolic activity (MTT). […] Macrophages were then treated with compounds resuspended in RPMI media (1–50 µM) for 24 hours. Media was replaced with thiazolyl blue tetrazolium bromide solubilized in RPMI media (0.5 mg/mL) and incubated at 37°C for 2 hours. The reduced formazan crystals were solubilized with isopropyl alcohol and the absorbance of the resulting solution was measured at 560 nm with a background subtraction at 670 nm. […] This process was repeated with a 72-hr incubation and extended concentration range (1–300 µM) for select compounds.

[2] = system: Extracellular L. donovani promastigotes; test: Resazurin viability assay of extracellular L. donovani promastigotes; assay type: cell-based, Leishmania donovani; conditions: for Extracellular L. donovani promastigotes MIC50: 72-hour incubation
Procedure: (§1) The effect of compounds on extracellular promastigotes was evaluated using a resazurin-based assay as described previously. In short, late log phase Leishmania promastigotes were seeded in a 96 well plate at 1 x 10^5 parasites per well and treated with drugs (0.5 – 200 µM) for 72 hours at 25°C. Ten microliters of Resazurin (0.02% w/v) were added to the treated parasites to achieve a final concentration of 0.002% w/v and incubated for 24 hours. Viability of the promastigotes was assessed by fluorescence (excitation 544 nm, emission 590 nm, SpectraMax M2, Molecular Devices).

[3] = system: Intracellular L. donovani amastigotes; test: Image-based Giemsa staining of intracellular L. donovani in bone marrow derived macrophages; assay type: cell-based, Leishmania donovani; conditions: 72-hour incubation
Procedure: (§2) Bone marrow derived macrophages (BMDMs) were isolated from BALB/c mice and cultured as previously described. […] Completely differentiated BMDMs are obtained after 7 days of culture with media change every 2 days. Harvested cells are seeded onto 10 mm glass cover slips at 5 x 10^5 cells/ well of a 24 well plate in DMEM media (without LCM) and allowed to adhere overnight. BMDM cells are then infected overnight with LV82 L. donovani or L. mexicana (NR-51210) at a multiplicity of infection of 10. After infection, cells were washed three times with fresh media to remove extracellular promastigotes and treated with compounds for a 72-hour incubation. BMDM cells were then washed with phosphate buffered saline, fixed with ice-cold methanol, and stained with Giemsa (5% v/v in water). The cover slips with stained cells are mounted onto glass slides and imaged on EVOS XL (100X, Thermo Fisher Scientific). Leishmania amastigotes per 100 macrophages were determined in a blinded manner.

[4] = system: Intracellular L. donovani amastigotes; test: Luminescence-based assay of intracellular L. donovani burden in THP-1 macrophages; assay type: cell-based, Leishmania donovani; conditions: for IC50: THP1 macrophages, luminescence assay, 72 hours of treatment, read-out: Intracellular L. donovani amastigotes Lum IC50; for Selectivity 24h LC50/ Lum IC50: host-directed effect vs cytotoxicity in THP-1
Procedure: Luminescent strains, L. donovani LV82 expressing firefly luciferase (a kind gift from Dr. Abhay Satoskar, Ohio State University) and L. mexicana (NR-51210, ATCC) expressing renilla luciferase were used to evaluate the effect of the compounds in intracellular and extracellular conditions. Wild-type L. donovani LV82 (ATCC) were used for Giemsa staining based experiments. All parasites were cultured at 25°C and 5% CO2 in M199 media (Corning) supplemented with 10% FBS, 1% Penicillin/Streptomycin, and Hemin (0.01 mg/mL), and used in experiments up to passage 15.
THP-1 cells were seeded in a 96 well plate (25,000 cells/well) overnight then differentiated with 150 nM phorbol 12-myristate 13-acetate (PMA) over 72 hours (S1 Fig). […] Briefly, promastigotes of a known cell density were resuspended in RPMI media (with 10% FBS, 1% P/S and 0.05 mM β-mercaptoethanol) and incubated with adhered THP-1 cells over 18 hours. After infection, cells were washed three times with fresh media to remove extracellular promastigotes.
Infected macrophages were then treated with compounds solubilized in DMSO ranging from 0.1-10 µM in concentrations. After 72 hours of treatment, the viability of the amastigotes within macrophages was determined using Promega firefly luminescence assay (Cat E1500) or Pierce Renilla luciferase assay (Cat 16166) for L. donovani and L. mexicana strains, respectively. Briefly, media was removed, and cells were lysed with the assay lysis buffer. The luciferase substrate was then incubated with the lysed cells for 10 min at room temperature and luminescence of live Leishmania was measured in a white opaque 96 well plate using a Biotek plate reader.

[5] = system: L. donovani; conditions: cited from earlier work
[6] = system: Intracellular L. mexicana amastigotes; test: microbe, parasite or virus in culture; assay type: cell-based, Leishmania mexicana; conditions: Leishmania mexicana, Macrophage, 72 h, bone marrow derived macrophages, Giemsa staining, 72-hour incubation
Procedure: as §2

[7] = system: Extracellular L. mexicana promastigotes; test: Resazurin viability assay of extracellular L. mexicana promastigotes; assay type: cell-based, Leishmania mexicana; conditions: Leishmania mexicana, 72-hour incubation
Procedure: as §1

[8] = system: LV82 L. donovani; test: Giemsa staining of intracellular L. donovani in BMDMs from wildtype C57BL/6 or lysozyme knockout mice; assay type: cell-based, Leishmania donovani; conditions: 72-hour incubation
Text: B6.129P2-Lyz2^tm1(cre)Ifo/J mice (stock #004781, herein termed ‘Lys K/O’) were obtained from Jackson Laboratory. This strain has a nuclear-localized Cre recombinase inserted into the first coding ATG of the lysozyme 2 gene (Lyz2) which eliminates endogenous Lyz2 gene function. Wildtype C57BL6/J mice (stock #000664) were obtained as a control.
Bone marrow derived macrophages (BMDMs) were isolated from both mice and cultured as described above in “Image-based Evaluation of Intracellular Anti-Leishmanial Activity”. BMDMs were seeded onto glass cover slips, infected with LV82 L. donovani at a multiplicity of infection of 1:10. Cells were washed to remove extracellular promastigotes and treated with compounds (197, amphotericin B) for a 72-hour incubation. BMDM cells were then washed with phosphate buffered saline, fixed with ice-cold methanol, and stained with Giemsa (5% v/v in water). The cover slips with stained cells are mounted onto glass slides and imaged on EVOS XL (100X, Thermo Fisher Scientific). Leishmania amastigotes per 100 macrophages were determined in a blinded manner.

[9] = 72-hour incubation, read-out: 72 hr viability of THP-1 macrophages LC50
[10] = read-out: 24 hr viability of THP-1 macrophages 24h LC50, 24-hour incubation

| SMILES | CC50 [1, 9] [µM] | CC50 [1, 10] [µM] | Extracellular L. donovani promastigotes MIC50 [2] [µM] | IC50 [3] [µM] | IC50 [4] [µM] | also measured |
| --- | --- | --- | --- | --- | --- | --- |
| FC(F)(F)c1ccc(-c2ccc(-c3cc(C(F)(F)F)nn3-c3ccc(NC4CCNC4)cc3)cc2)cc1 (racemic) [Compound 25] | 6.3 | 28.9 | 2.1 | 2.5 | 0.7 |  |
| NCC(=O)Nc1ccc(-n2nc(C(F)(F)F)cc2-c2ccc3c(ccc4ccccc43)c2)cc1 [AR-12, reference compound] |  |  |  |  |  | direct effect on the promastigote [5]: no direct effect; parasite burden of L. donovani in infected macrophages ([5]; in vitro and in vivo): decrease the parasite burden; IC50 [6]: 1.5 µM; MIC50 [7]: 15.1 µM (≈ 6.95 µg/mL) |
| C[C@@H]1[C@H](O)[C@@H](C)/C=C/C=C/C=C/C=C/C=C/C=C/C=C/[C@H](O[C@@H]2O[C@H](C)[C@@H](O)[C@H](N)[C@@H]2O)C[C@@H]2O[C@](O)(C[C@@H](O)C[C@@H](O)[C@H](O)CC[C@@H](O)C[C@@H](O)CC(=O)O[C@H]1C)C[C@H](O)[C@H]2C(=O)O [Amphotericin B, reference compound] |  |  |  |  |  | anti-leishmanial activity in WT and Lys K/O BMDMs [8]: retained its anti-leishmanial activity in both WT and Lys K/O BMDMs |
| Nc1ccc(CNC2CCN(c3ccc(-n4nc(C(F)(F)F)cc4-c4ccc(-c5ccc(C(F)(F)F)cc5)cc4)cc3)C2)cc1 (stereo not drawn) [Compound 23] | 6.9 | 5.8 | 4.0 | 0.9 | 0.4 |  |
| CC(C)(C)C#Cc1ccc(-c2cc(C(F)(F)F)nn2-c2ccc(N3CCNCC3)cc2)cc1 [Compound 44] | 14.5 | 7.4 | 1.9 | 1 | 0.9 |  |
| NCC(=O)Nc1ccc(-n2cc(C(F)(F)F)nc2-c2ccc(-c3ccccc3)cc2)cc1 [Compound 50] | 42.7 | 23.5 | 14.6 | 9.1 | 1.5 |  |
| N#Cc1cccc(CN2CCC(Nc3ccc(-n4nc(C(F)(F)F)cc4-c4ccc(-c5ccc(C(F)(F)F)cc5)cc4)cc3)C2)c1 (stereo not drawn) [Compound 53] |  |  |  |  |  | reduction in macrophage viability ([1]; 72 hr incubation up to 300µM): Neither compound had any reduction; direct effects on extracellular promastigote viability ([2]; for 53 strain not specified): no direct effects; MIC50 [7]: > 200 µM; Selectivity 24h LC50/ Lum IC50 [4]: >112.6 |
| O=C(Nc1ccc(-n2cc(C(F)(F)F)nc2-c2ccc(-c3ccccc3)cc2)cc1)C1CCN(Cc2ccccc2)C1 (stereo not drawn) [Compound 86] | 8.2 | 21.9 | 3.2 | 0.6 | 1.4 |  |
| Oc1ccccc1CN1CCC(Nc2ccc(-n3nc(C(F)(F)F)cc3-c3ccc(-c4ccc(C(F)(F)F)cc4)cc3)cc2)C1 (stereo not drawn) [Compound 91] | 53.4 | > 50 | 56.3 | 2.4 | 1.4 |  |
| N[C@@H]1CCN(c2ccc(-n3nc(C(F)(F)F)cc3-c3ccc(-c4ccc(C(F)(F)F)cc4)cc3)cc2)C1 [Compound 129] | 6.2 | 6.3 | 1.7 | 0.4 | 0.1 |  |
| N[C@H]1CCN(c2ccc(-n3nc(C(F)(F)F)cc3-c3ccc(-c4ccc(C(F)(F)F)cc4)cc3)cc2)C1 [Compound 130] | 6.4 | 4.2 | 2.1 | 1.6 | 0.2 |  |
| NC1CCN(c2ccc(-n3nncc3-c3ccc(C(F)(F)F)cc3)cc2)C1 (stereo not drawn) [Compound 134] |  |  |  |  |  | IC50 [6]: 0.8 µM; MIC50 [7]: 16.5 µM (≈ 6.16 µg/mL); Selectivity 24h LC50/ Lum IC50 [4]: 42.1 |
| NCC(=O)Nc1ccc(-n2ccnc2-c2ccc(-c3ccc(C(F)(F)F)cc3)cc2)cc1 [Compound 158] | 16.5 | 16 | 4.6 | 0.6 | 0.2 | intracellular activity (primary screen) ([4]; imidazole series): retaining potent intracellular activity |
| Oc1ccc(CNC2CCN(c3ccc(-n4nc(C(F)(F)F)cc4C4CCCCC4)cc3)CC2)cc1 [Compound 319] | 7.2 | 6.4 | 0.8 | 3.4 | 0.8 |  |
| N#Cc1ccc(CNCC(=O)Nc2ccc(-n3nc(C(F)(F)F)cc3C3CCCCC3)cc2)cc1 [Compound 354] |  |  |  |  |  | IC50 [6]: 3.5 µM; MIC50 [7]: 30.7 µM (≈ 14.8 µg/mL); Selectivity 24h LC50/ Lum IC50 [4]: 44.9 |
